In ChEMBL document CHEMBL5356958, “Discovery of a Highly Potent and Selective MYOF Inhibitor with Improved Water Solubility for the Treatment of Gastric Cancer” (J Med Chem, 2023):
pIC50, pKd: −log10 of the molar value. ≈ marks a conversion by molar mass, not a printed value. Calls of active or inactive are those of the source. No cut-off for these calls is given here.

Columns and labels:
[1] = system: MKN-45; test: Induction of apoptosis in human MKN-45 cells assessed as late apoptotic cells at 100 nM incubated for 48 hrs by Annexin V-FITC/PI staining based flow cytometry analysis (reference value: 2.6%); assay type: functional
[2] = Clearance in ICR mouse at 1 mg/kg, iv; assay type: ADME, organism-based; conditions: in vivo
[3] = molecular target: T1, Myoferlin (Homo sapiens, UniProt Q9NZM1); test: Binding affinity to MYOF in human MKN45 cells at 50 to 100 uM incubated for 1 hr by CETSA; assay type: cell-based; conditions: MKN-45, dose 50-100 µM
[4] = Aqueous solubility of compound in PBS at pH 9; assay type: physicochemical
[5] = Half life in ICR mouse at 10 mg/kg, po; assay type: ADME, organism-based; conditions: in vivo
[6] = system: SK-HEP1; test: Antiproliferative activity against human SK-HEP1 cells incubated for 48 hrs by SRB assay; assay type: functional, cell-based; conditions: SK-HEP1, 48 h
[7] = AUC(0 to infinity) in ICR mouse at 1 mg/kg, iv; assay type: ADME, organism-based; parameters: dose 1 mg/kg, route iv; conditions: in vivo
[8] = system: MGC-803; test: Antiproliferative activity against human MGC-803 cells incubated for 48 hrs by SRB assay; assay type: functional, cell-based; conditions: MGC-803, 48 h
[9] = molecular target: Cytochrome P450 2C9 (Homo sapiens, UniProt P11712); test: Inhibition of CYP2C9 in human liver microsomes; assay type: ADME, Microsome
[10] = system: MKN-45; test: Induction of apoptosis in human MKN-45 cells assessed as late apoptotic cells at 200 nM incubated for 48 hrs by Annexin V-FITC/PI staining based flow cytometry analysis (reference value: 2.6%); assay type: functional
[11] = system: MKN-45; test: Antiproliferative activity against human MKN-45 cells incubated for 48 hrs by SRB assay; assay type: functional, cell-based; conditions: MKN-45, 48 h
[12] = system: MKN-45; test: Inhibition of human MKN-45 cells colony formation incubated for 10 days by crystal violet staining based assay; assay type: functional, cell-based; conditions: dose 50-100 nM, time 10.0 day
[13] = system: MKN-45; test: Antitumor activity against human MKN-45 cells xenografted in BALB/c mouse assessed as tumor growth inhibition at 30 mg/kg/day, ip measured every 3 days for 21 days; assay type: functional; conditions: MKN-45, 504 h, time 21 day, read-out: TGI
[14] = molecular target: CYP1A (Homo sapiens, UniProt P04798+P05177); test: Inhibition of CYP1A in human liver microsomes; assay type: ADME, Microsome
[15] = Mean residence time in ICR mouse at 10 mg/kg, po; assay type: ADME, organism-based; conditions: in vivo
[16] = system: MKN-45; test: Antiproliferative activity against MYOF knocked down human MKN-45 cells incubated for 48 hrs by SRB assay; assay type: functional, cell-based
[17] = molecular target: T1, Myoferlin; test: Binding affinity to MYOF C2D (unknown origin) expressed in Escherichia coli BL21(DE3) by SPR analysis
[18] = Toxicity in BALB/c mouse assessed as change in heart morphology at 15 to 30 mg/kg, ip measured every 3 days for 21 days by HE staining based assay; assay type: organism-based; conditions: in vivo, 504 h, dose 15-30 mg/kg, time 21 day
[19] = AUC(0 to t) in ICR mouse at 1 mg/kg, iv; assay type: ADME, organism-based; parameters: dose 1 mg/kg, route iv; conditions: in vivo
[20] = molecular target: Cytochrome P450 2C19 (Homo sapiens, UniProt P33261); test: Inhibition of CYP2C19 in human liver microsomes; assay type: ADME, Microsome
[21] = system: MKN-45; test: Inhibition of epithelial mesenchymal transition in human MKN-45 cells assessed as downregulation in N-cadherin level by Western blotting analysis; assay type: functional, cell-based
[22] = molecular target: Cytochrome P450 2D6 (Homo sapiens, UniProt P10635); test: Inhibition of CYP2D6 in human liver microsomes; assay type: ADME, Microsome
[23] = AUC(0 to infinity) in ICR mouse at 10 mg/kg, po; assay type: ADME, organism-based; parameters: dose 10 mg/kg, route po; conditions: in vivo
[24] = Toxicity in BALB/c mouse assessed as change in liver morphology at 15 to 30 mg/kg, ip measured every 3 days for 21 days by HE staining based assay; assay type: organism-based; conditions: in vivo, 504 h, dose 15-30 mg/kg, time 21 day
[25] = molecular target: Cytochrome P450 3A4 (Homo sapiens, UniProt P08684); test: Inhibition of CYP3A4 in human liver microsomes; assay type: ADME, Microsome
[26] = AUC(0 to t) in ICR mouse at 10 mg/kg, po; assay type: ADME, organism-based; parameters: dose 10 mg/kg, route po; conditions: in vivo
[27] = system: BXPC-3; test: Antiproliferative activity against human BXPC-3 cells incubated for 48 hrs by SRB assay; assay type: functional, cell-based; conditions: BXPC-3, 48 h
[28] = system: MGC-803; test: Antiinvasive activity against human MGC-803 cells incubated for 24 hrs by crystal violet staining based inverted microscopic analysis; assay type: functional, cell-based
[29] = system: BGC-823; test: Antiproliferative activity against human BGC-823 cells incubated for 48 hrs by SRB assay; assay type: functional, cell-based; conditions: BGC-823, 48 h
[30] = system: CWR22R; test: Antiproliferative activity against human 22Rv1 cells incubated for 48 hrs by SRB assay; assay type: functional, cell-based; conditions: 22Rv1, 48 h
[31] = system: MKN-45; test: Inhibition of epithelial mesenchymal transition in human MKN-45 cells assessed as upregulation in E-cadherin level by Western blotting analysis; assay type: functional, cell-based; conditions: dose 100-400 nM
[32] = system: DU-145; test: Antiproliferative activity against human DU-145 cells incubated for 48 hrs by SRB assay; assay type: functional, cell-based; conditions: DU-145, 48 h
[33] = Mean residence time in ICR mouse at 1 mg/kg, iv; assay type: ADME, organism-based; conditions: in vivo
[34] = Cmax in ICR mouse at 10 mg/kg, po; assay type: ADME, organism-based; parameters: dose 10 mg/kg, route po; conditions: in vivo
[35] = system: MKN-45; test: Induction of apoptosis in human MKN-45 cells assessed as early apoptotic cells at 200 nM incubated for 48 hrs by Annexin V-FITC/PI staining based flow cytometry analysis (reference value: 0.5%); assay type: functional
[36] = Toxicity in BALB/c mouse assessed as change in lung morphology at 15 to 30 mg/kg, ip measured every 3 days for 21 days by HE staining based assay; assay type: organism-based; conditions: in vivo, 504 h, dose 15-30 mg/kg, time 21 day
[37] = Toxicity in BALB/c mouse assessed as change in kidney morphology at 15 to 30 mg/kg, ip measured every 3 days for 21 days by HE staining based assay; assay type: organism-based; conditions: in vivo, 504 h, dose 15-30 mg/kg, time 21 day
[38] = system: MKN-45; test: Induction of apoptosis in human MKN-45 cells assessed as early apoptotic cells at 400 nM incubated for 48 hrs by Annexin V-FITC/PI staining based flow cytometry analysis (reference value: 0.5%); assay type: functional
[39] = molecular target: Voltage-gated inwardly rectifying potassium channel KCNH2 (Homo sapiens, UniProt Q12809); test: Inhibition of human ERG; assay type: toxicity
[40] = system: MKN-45; test: Induction of apoptosis in human MKN-45 cells assessed as early apoptotic cells at 100 nM incubated for 48 hrs by Annexin V-FITC/PI staining based flow cytometry analysis (reference value: 0.5%); assay type: functional
[41] = Half life in ICR mouse at 1 mg/kg, iv; assay type: ADME, organism-based; conditions: in vivo
[42] = molecular target: Serine/threonine-protein kinase AKT (Homo sapiens) (UniProt P31751+Q9Y243+P31749); test: Inhibition of AKT phosphorylation in human MKN-45 cells by Western blot analysis; assay type: cell-based
[43] = Oral bioavailability in ICR mouse at 10 mg/kg; assay type: ADME, organism-based; conditions: in vivo
[44] = system: MKN-45; test: Induction of apoptosis in human MKN-45 cells assessed as early apoptotic cells at 800 nM incubated for 48 hrs by Annexin V-FITC/PI staining based flow cytometry analysis (reference value: 0.5%); assay type: functional
[45] = system: MKN-45; test: Inhibition of epithelial mesenchymal transition in human MKN-45 cells assessed as downregulation in vimentin level by Western blotting analysis; assay type: functional, cell-based

T1 sequence (Q9NZM1 whole entry): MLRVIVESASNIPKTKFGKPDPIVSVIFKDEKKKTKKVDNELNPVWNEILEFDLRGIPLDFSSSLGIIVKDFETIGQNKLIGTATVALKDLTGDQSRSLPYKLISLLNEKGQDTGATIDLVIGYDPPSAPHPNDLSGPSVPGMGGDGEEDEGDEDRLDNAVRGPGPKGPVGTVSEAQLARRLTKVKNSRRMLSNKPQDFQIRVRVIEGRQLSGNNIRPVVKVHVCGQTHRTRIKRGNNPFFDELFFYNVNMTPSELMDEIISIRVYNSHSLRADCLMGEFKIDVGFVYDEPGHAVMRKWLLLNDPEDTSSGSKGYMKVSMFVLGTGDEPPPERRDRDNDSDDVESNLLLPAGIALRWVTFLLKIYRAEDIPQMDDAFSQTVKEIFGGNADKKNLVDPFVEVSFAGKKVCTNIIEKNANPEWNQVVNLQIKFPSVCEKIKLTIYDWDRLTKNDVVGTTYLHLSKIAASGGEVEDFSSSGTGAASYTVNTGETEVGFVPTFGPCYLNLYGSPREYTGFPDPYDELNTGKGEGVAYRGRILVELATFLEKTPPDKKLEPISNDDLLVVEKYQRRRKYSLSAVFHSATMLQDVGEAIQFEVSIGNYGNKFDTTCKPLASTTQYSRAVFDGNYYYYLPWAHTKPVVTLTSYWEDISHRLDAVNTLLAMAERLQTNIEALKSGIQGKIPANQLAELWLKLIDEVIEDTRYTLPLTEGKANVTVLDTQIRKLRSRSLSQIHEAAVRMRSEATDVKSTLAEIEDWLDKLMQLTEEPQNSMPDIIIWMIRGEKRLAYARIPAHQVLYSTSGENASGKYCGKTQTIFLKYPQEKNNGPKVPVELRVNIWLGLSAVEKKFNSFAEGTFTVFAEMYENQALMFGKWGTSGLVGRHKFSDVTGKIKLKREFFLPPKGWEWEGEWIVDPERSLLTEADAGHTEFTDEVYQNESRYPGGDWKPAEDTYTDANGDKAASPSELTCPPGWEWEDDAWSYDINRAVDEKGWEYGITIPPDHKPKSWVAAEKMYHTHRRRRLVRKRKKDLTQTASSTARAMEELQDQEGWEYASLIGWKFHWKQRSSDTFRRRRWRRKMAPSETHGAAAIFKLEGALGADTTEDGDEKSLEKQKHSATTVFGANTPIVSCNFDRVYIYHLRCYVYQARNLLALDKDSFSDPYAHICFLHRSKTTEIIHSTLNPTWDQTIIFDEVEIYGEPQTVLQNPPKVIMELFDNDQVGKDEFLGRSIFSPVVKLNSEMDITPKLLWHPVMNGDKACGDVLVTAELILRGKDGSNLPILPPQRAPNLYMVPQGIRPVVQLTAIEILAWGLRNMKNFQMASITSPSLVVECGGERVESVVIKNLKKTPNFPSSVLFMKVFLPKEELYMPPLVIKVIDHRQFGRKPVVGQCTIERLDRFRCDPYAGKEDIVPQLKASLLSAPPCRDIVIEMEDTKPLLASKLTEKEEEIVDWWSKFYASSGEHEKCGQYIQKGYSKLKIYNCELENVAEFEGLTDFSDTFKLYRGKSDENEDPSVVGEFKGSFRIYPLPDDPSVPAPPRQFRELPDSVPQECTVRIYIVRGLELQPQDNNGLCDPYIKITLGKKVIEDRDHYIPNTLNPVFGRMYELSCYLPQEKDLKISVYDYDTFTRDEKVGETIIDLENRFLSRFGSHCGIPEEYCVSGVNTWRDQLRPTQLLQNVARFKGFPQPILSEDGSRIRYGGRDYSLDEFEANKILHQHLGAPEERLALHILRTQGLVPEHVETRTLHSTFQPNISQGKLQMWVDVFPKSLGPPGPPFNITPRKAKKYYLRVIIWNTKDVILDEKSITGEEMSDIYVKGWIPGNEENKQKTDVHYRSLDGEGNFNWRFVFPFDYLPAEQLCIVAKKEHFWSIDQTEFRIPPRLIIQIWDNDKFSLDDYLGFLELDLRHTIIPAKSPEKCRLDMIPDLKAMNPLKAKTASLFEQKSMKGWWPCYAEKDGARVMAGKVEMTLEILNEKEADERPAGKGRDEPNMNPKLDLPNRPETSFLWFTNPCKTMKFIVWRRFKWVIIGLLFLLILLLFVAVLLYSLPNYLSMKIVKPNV
Chain of Cytochrome P450 2D6 (P10635 whole entry): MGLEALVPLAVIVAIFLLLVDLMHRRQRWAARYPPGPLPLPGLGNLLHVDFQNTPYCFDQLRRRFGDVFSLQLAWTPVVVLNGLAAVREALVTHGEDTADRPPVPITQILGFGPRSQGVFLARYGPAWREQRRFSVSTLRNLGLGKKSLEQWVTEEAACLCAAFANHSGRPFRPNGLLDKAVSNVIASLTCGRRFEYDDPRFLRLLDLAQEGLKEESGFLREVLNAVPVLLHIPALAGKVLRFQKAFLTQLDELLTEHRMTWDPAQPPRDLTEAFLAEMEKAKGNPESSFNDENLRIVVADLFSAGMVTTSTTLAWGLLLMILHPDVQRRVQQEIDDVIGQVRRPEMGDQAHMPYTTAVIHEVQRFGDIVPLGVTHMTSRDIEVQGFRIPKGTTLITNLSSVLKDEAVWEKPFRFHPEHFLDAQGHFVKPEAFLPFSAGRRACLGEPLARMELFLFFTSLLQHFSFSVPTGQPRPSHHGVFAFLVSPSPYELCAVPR
Chain of Cytochrome P450 2C9 (P11712 whole entry): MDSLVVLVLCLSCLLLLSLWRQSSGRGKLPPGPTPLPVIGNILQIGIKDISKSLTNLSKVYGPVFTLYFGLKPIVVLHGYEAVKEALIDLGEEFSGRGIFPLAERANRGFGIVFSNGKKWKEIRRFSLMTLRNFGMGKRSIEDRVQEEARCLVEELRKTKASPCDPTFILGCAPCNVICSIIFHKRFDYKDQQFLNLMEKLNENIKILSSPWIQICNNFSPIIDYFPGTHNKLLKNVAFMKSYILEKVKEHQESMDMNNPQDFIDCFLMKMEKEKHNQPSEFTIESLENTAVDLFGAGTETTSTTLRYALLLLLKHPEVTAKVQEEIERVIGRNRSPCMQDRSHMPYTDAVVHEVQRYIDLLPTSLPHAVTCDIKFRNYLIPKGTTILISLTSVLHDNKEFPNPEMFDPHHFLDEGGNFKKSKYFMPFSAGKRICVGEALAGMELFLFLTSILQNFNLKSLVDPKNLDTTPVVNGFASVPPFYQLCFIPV
Chain of Serine/threonine-protein kinase AKT (Homo sapiens) (P31749 whole entry, looked up): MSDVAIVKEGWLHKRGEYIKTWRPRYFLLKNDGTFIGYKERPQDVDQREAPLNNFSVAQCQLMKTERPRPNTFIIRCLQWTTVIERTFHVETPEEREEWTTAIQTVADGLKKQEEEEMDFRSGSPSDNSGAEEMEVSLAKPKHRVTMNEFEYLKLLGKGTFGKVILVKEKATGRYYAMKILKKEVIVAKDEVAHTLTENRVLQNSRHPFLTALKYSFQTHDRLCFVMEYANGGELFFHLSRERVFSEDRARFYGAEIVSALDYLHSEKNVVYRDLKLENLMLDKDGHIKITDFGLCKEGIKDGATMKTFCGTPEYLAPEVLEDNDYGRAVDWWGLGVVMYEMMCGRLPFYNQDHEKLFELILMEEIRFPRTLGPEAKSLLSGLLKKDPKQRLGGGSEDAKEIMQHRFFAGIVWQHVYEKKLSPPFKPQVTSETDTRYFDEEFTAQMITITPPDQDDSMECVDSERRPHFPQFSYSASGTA
Chain of Serine/threonine-protein kinase AKT (Homo sapiens) (P31751 whole entry, looked up): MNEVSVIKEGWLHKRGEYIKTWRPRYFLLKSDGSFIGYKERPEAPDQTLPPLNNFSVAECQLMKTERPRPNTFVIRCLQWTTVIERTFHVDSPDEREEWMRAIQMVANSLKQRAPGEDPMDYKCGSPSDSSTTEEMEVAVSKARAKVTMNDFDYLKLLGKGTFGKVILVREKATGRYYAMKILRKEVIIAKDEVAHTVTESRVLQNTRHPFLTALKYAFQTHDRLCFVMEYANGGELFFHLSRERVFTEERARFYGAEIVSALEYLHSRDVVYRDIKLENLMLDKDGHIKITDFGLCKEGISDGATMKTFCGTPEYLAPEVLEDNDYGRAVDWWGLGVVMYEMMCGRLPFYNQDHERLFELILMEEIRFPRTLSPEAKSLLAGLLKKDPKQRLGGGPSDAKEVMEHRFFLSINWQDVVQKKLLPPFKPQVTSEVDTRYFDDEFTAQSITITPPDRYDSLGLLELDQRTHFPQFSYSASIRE
Chain of Serine/threonine-protein kinase AKT (Homo sapiens) (Q9Y243 whole entry, looked up): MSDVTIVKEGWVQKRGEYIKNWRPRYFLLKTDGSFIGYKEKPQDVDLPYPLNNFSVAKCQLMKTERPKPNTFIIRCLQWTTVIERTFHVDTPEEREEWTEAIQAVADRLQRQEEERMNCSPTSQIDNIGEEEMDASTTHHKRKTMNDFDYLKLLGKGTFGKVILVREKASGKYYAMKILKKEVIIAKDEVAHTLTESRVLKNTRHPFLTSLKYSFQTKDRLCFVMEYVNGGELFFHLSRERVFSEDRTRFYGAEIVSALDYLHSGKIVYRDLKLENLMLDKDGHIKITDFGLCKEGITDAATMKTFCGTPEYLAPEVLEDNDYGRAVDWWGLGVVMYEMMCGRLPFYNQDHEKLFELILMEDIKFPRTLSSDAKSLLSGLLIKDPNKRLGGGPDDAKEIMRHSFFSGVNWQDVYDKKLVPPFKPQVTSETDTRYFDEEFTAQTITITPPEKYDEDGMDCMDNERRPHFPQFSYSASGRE
Chain of Cytochrome P450 2C19 (P33261 whole entry): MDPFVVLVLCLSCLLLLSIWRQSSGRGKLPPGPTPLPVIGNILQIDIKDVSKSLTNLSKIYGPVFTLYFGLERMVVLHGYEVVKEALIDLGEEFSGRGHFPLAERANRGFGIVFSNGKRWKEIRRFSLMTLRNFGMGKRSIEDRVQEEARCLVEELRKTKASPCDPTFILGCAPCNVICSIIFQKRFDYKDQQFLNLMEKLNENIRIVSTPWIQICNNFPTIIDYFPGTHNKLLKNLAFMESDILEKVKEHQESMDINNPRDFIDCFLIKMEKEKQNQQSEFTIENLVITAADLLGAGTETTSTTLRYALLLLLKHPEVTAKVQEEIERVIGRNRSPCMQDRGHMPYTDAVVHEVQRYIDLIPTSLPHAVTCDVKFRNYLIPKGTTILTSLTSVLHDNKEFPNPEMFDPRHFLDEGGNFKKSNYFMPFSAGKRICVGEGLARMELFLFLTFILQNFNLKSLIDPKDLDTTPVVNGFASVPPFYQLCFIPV

clearance [2]: 22 mL/min/kg
Activity [3]: Active
solubility [4]: 258 µM (≈ 115 µg/mL)
half-life [5]: 38.4 min
pIC50 [6]: 6.12
AUC(0-inf) [7]: 762 ng·h/mL
pIC50 [8]: 6.80
pIC50 [9]: 4.83
pIC50 [11]: 6.85
pIC50 [14]: < 4.30
MRT [15]: 40.3 min
pKd [17]: 6.77
AUC(0-t) [19]: 751 ng·h/mL
pIC50 [20]: 4.73
pIC50 [22]: < 4.30
AUC(0-inf) [23]: 4940 ng·h/mL
pIC50 [25]: 4.45
AUC(0-t) [26]: 4920 ng·h/mL
pIC50 [27]: 6.89
pIC50 ([28]; MGC-803, 24 h): 7.22
pIC50 [29]: 6.54
pIC50 [32]: < 5.00
MRT [33]: 17.2 min
Cmax [34]: 5820 ng/mL
half-life [41]: 13.2 min
inhibition [42]: Active
bioavailability [43]: 65.5%
Compound: CCc1nc(-c2ccc(OC)cc2)n(-c2cccc(C(=O)NCCCCn3nccn3)c2)n1
Activity [1]: 2.8%
Activity [10]: 4.7%
inhibition [12]: Dose-Dependent Effect
inhibition in vivo at 30 mg/kg/day [13]: 68.5%
Activity [16]: inactive
Activity [18]: Non-Toxic
inhibition [21]: Dose-Dependent Effect
Activity [24]: Non-Toxic
Activity [28]: Dose-Dependent Effect
pIC50 [30]: < 5.00
inhibition [31]: Dose-Dependent Effect
Activity [35]: 1%
Activity [36]: Non-Toxic
Activity [37]: Non-Toxic
Activity [38]: 12.6%
pIC50 [39]: < 4.40
Activity [40]: 0.6%
Activity [44]: 13.4%
inhibition [45]: Dose-Dependent Effect
